A value given as a limit tells only on which side of the number the result lay.

One data set addresses T1, p300 (Homo sapiens, UniProt Q09472).
T1 sequence (Q09472 1195-1662): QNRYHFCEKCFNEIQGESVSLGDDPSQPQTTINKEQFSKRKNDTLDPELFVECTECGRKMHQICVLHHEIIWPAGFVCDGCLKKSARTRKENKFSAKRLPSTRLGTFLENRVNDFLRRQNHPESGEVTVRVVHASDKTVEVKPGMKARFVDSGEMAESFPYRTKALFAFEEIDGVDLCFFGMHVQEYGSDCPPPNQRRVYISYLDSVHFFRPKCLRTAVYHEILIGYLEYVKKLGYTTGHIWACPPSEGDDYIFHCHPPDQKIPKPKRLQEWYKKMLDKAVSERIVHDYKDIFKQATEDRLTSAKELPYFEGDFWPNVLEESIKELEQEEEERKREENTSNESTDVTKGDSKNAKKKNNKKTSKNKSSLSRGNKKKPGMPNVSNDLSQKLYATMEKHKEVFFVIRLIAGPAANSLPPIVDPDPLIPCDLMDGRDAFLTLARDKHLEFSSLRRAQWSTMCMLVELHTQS
Kind of data set: Microfluidic mobility shift KAT assay, p300 with FITC-H4. In kind it is biochemical.

Data set [1] has as its target T2, Gcn5 (Homo sapiens, UniProt Q92830). Briefly: Real-time kinetic monitoring of Gcn5-catalyzed acetylation. In kind it is biochemical. The following applies: first 25 min vs last 25 min of 100 min; uninhibited enzyme = 1.
Another data set has as its system cell viability. Kind of data set: Cell viability / toxicity. In kind it is cell-based. Conditions: at concentrations of ~60 μM.
In data set [2] the target is T2, Gcn5. Briefly: Microfluidic mobility shift KAT assay, Gcn5 with FITC-H3. The class given is biochemical. Conditions: for detergent sensitivity of Gcn5 inhibition: low (0.01%) compared to high (0.05%) Triton-X; for inhibition of Gcn5 in pilot screen: acetyl-CoA 1 μM, unicate, hydroxylamine quench.
The subject of a further data set is HepG2 cells. Kind of data set: Effect of garcinol on acetylation in HepG2 cells. In kind it is cell-based.

T2 sequence (Q92830 497-662): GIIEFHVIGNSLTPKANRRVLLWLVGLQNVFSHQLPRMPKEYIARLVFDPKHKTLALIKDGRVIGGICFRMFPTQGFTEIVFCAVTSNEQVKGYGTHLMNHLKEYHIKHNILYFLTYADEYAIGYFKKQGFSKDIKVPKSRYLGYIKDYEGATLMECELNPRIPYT

In the case of `C=C(C)[C@@H](CC=C(C)C)C[C@@]12C[C@@H](CC=C(C)C)C(C)(C)[C@@](CC=C(C)C)(C(=O)C(C(=O)c3ccc(O)c(O)c3)=C1O)C2=O` [garcinol], the “effect on p300 in pilot screen (in words)” value at p300 (compound 40 μM) is listed as “Selective inhibition of p300”. Moreover, at p300 (low (0.01%) compared to high (0.05%) Triton-X), the “detergent sensitivity of p300 inhibition” value is recorded as “significantly greater inhibitory activity”. Besides, the “time dependence value (ratio of acetylation rates at early/late intervals)” value on Gcn5 [1] is recorded as greater than 1. Further, the toxicity entry in the data set with cell viability is “toxic”. In addition, the “effect on Gcn5 in pilot screen (in words)” value at Gcn5 [2] (compound 40 μM) was “did not manifest as a Gcn5 hit”. For the same molecule, the “detergent sensitivity of Gcn5 inhibition” value on Gcn5 [2] is “significantly greater inhibitory activity”. Also, in the data set with HepG2 cells, the “lowest concentration with effects on acetylation” value is on record as ~ 25 μM.
As for `O=C1c2c(O)ccc(O)c2C(=O)c2c(NCCNCCO)ccc(NCCNCCO)c21` [mitoxantrone], the “effect on p300 in pilot screen (in words)” value at p300 (compound 40 μM) is reported as “selective p300 activation”.
For `Cc1cc2c(C(C)C)c(O)c(O)c(C=O)c2c(O)c1-c1c(C)cc2c(C(C)C)c(O)c(O)c(C=O)c2c1O` [gossypol], the “time dependence value (ratio of acetylation rates at early/late intervals)” value at Gcn5 [1] is reported as greater than 1. Also, the “detergent sensitivity of Gcn5 inhibition” value at Gcn5 [2] is “detergent-sensitive inhibition”. For the same molecule, the inhibition at 40 µM on Gcn5 [2] (read-out: inhibition of Gcn5 in pilot screen) was greater than 40%.
Turning to `CCCCCCCc1ccc(CCc2cccc(O)c2C(=O)O)cc1` [MG-149], the “inhibition of Gcn5 in pilot screen” value on Gcn5 [2] (compound 40 μM) is recorded as “greater than 40%”.
On to `CC(=O)N[C@@H](CCCCNC(=O)CSCCNC(=O)CCNC(=O)[C@H](O)C(C)(C)COP(=O)(O)OP(=O)(O)OC[C@H]1O[C@@H](n2cnc3c(N)ncnc32)[C@H](O)[C@@H]1OP(=O)(O)O)C(N)=O` [Lys-CoA], for which the “inhibition of p300 in pilot screen” value at p300 (compound 40 μM, acetyl-CoA 1 μM, unicate, hydroxylamine quench) is reported as “greater than 40%”. On p300 (compound 40 μM, p300 compared to Gcn5), the “p300 versus Gcn5 selectivity in pilot screen (in words)” value was “inhibited p300 considerably more strongly than Gcn5”. The “inhibition of Gcn5 in pilot screen” value at Gcn5 [2] (compound 40 μM) is “greater than 40%”.

For the origin of these results see PMC6320249 (ACS chemical biology, 2015).
